Source: US9034877B2 (Wayne State University, priority 2009, dated 2015)
Counter-ions that a name gives are not always drawn. Blank lines part the entries; values can stand above or below the molecule they belong to.

Legend:
[1] = target: T1, D3 receptor (Rattus norvegicus, UniProt P19020); assay: Inhibition of [3H]spiperone binding to cloned D3 receptors expressed in HEK-293 cells; details: for Ki: [3H]spiperone, rat D3 in HEK-293 cells
T1 construct: expressed in transfected cells

[2] = target: T2, D2L receptor (Rattus norvegicus, UniProt P61169); assay: Inhibition of [3H]spiperone binding to cloned D2L receptors expressed in HEK-293 cells; details: rat D2L in HEK-293 cells, read-out: Ki, D2 receptor
T2 construct: expressed in transfected cells
T2 sequence (P61169 whole entry): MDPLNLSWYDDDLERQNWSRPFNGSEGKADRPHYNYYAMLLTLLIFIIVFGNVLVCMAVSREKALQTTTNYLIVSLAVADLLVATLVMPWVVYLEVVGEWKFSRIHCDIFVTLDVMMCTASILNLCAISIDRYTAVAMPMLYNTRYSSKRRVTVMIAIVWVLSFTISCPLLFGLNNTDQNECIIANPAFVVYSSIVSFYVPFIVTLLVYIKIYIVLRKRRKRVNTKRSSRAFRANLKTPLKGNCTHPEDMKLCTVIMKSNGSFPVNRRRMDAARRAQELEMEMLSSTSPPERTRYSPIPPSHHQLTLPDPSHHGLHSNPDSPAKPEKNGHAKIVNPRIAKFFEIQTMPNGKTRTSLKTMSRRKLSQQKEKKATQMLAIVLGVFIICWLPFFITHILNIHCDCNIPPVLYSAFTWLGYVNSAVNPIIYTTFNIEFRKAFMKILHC

T1 sequence (P19020 whole entry): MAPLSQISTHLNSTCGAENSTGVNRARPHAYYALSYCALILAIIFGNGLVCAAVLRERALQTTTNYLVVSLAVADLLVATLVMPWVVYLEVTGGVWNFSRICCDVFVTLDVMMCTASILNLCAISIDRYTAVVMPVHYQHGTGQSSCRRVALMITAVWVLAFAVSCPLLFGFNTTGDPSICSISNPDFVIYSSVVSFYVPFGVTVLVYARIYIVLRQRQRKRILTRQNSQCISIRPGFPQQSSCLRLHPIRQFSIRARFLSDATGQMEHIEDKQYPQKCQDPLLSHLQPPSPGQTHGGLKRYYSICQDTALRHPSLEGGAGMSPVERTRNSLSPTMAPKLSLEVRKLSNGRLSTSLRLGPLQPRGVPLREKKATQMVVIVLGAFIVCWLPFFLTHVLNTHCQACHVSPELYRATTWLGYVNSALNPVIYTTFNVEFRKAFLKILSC

SMILES: CCCN(CCN1CCN(Cc2ccc(O)c3ncccc23)CC1)C1CCc2c(O)cccc2C1 (stereo not shown) (as salt: hydrochloride) [Compound 12b, 5-((4-(2-((5-hydroxy-1,2,3,4-tetrahydronaphthalen-2-yl)(propyl)amino)ethyl)piperazin-1-yl)methyl)quinolin-8-ol]
melting point: 252 to 255 °C

SMILES: CCCN(CCN1CCN(c2ccc3[nH]ccc3c2)CC1)C1CCc2ccc(O)cc2C1 (stereo not shown) (as salt: oxalate) [Compound 52, 7-((2-(4-(1H-indol-5-yl)piperazin-1-yl)ethyl)(propyl)amino)-5,6,7,8-tetrahydro-naphthalen-2-ol]
melting point: 179 to 183 °C

SMILES: CCCN(CCN1CCN(C(=O)c2cc3ccccc3[nH]2)CC1)C1CCc2c(O)cccc2C1 (single isomer, unassigned; (+)) (as salt: HCl) [Compound (+)-40e, (+)-(4-{2-[(5-Hydroxy-1,2,3,4-tetrahydro-naphthalen-2-yl)-propyl-amino]-ethyl}-piperazin-1-yl)-(1H-indol-2-yl)-methanone]
melting point: 169 to 170 °C

SMILES: CCCN(CCN1CCN(c2ccnc3c(O)cccc23)CC1)C1CCc2c(O)cccc2C1 (single isomer, unassigned; (+)) (as salt: hydrochloride) [(+)19b, (+)-4-(4-(2-((5-hydroxy-1,2,3,4-tetrahydronaphthalen-2-yl) (propyl)amino)ethyl)piperazin-1-yl)quinolin-8-ol]
melting point: 230 to 232 °C

SMILES: CCCN(CCN1CCN(C(=O)c2cc3ccccc3[nH]2)CC1)C1CCc2c(O)cccc2C1 (single isomer, unassigned; (-)) (as salt: HCl) [Compound (−)-40e, (−)-(4-{2-[(5-Hydroxy-1,2,3,4-tetrahydro-naphthalen-2-yl)-propyl-amino]-ethyl}-piperazin-1-yl)-(1H-indol-2-yl)-methanone]
melting point: 168 to 169 °C

SMILES: CCCN(CCN1CCN(c2ccnc3c(O)cccc23)CC1)C1CCc2c(O)cccc2C1 (single isomer, unassigned; (-)) (as salt: hydrochloride) [Compound (−)19b, (−)-4-(4-(2-((5-hydroxy-1,2,3,4-tetrahydronaphthalen-2-yl) (propyl)amino)ethyl)piperazin-1-yl)quinolin-8-ol]
melting point: 237 to 240 °C

SMILES: CCCN(CCN1CCN(Cc2ccc(O)c3ncccc23)CC1)C1CCc2ccc(O)cc2C1 (stereo not shown) [Compound 12a, 5-((4-(2-((7-hydroxy-1,2,3,4-tetrahydronaphthalen-2-yl)(propyl)amino)ethyl)piperazin-1-yl)methyl) quinolin-8-ol]
Ki [2]: 86 nM
Ki [1]: 5.57 nM

SMILES: CCCN(CCN1CCN(Cc2ccc(O)c3ncccc23)CC1)C1CCc2c(O)cccc2C1 (stereo not shown) [Compound 12b, 5-((4-(2-((5-hydroxy-1,2,3,4-tetrahydronaphthalen-2-yl)(propyl)amino)ethyl)piperazin-1-yl)methyl)quinolin-8-ol]
Ki [1]: 3.71 nM

SMILES: CCCN(CCN1CCN(c2ccnc3c(O)cccc23)CC1)C1CCc2c(O)cccc2C1 (stereo not shown) [Compound 19b]
Ki [1]: 1.35 nM

Continued, values first:

melting point: 203 to 205 °C
SMILES: CCCN(CCN1CCN(C(=O)c2cc3ccccc3[nH]2)CC1)C1CCc2ccc(O)cc2C1 (stereo not shown) (as salt: HCl) [Compound 40c, (4-{2-[(7-Hydroxy-1,2,3,4-tetrahydro-naphthalen-2-yl)-propyl-amino]-ethyl}-piperazin-1-yl)-(1H-indol-2-yl)-methanone]

melting point: 147 to 151 °C
SMILES: CCCN(CCN1CCN(C(=O)c2c[nH]c3ccccc23)CC1)C1CCc2c(O)cccc2C1 (stereo not shown) (as salt: HCl) [Compound 40f, (4-{2-[(5-Hydroxy-1,2,3,4-tetrahydro-naphthalen-2-yl)-propyl-amino]-ethyl}-piperazin-1-yl)-(1H-indol-3-yl)-methanone]

melting point: 167 to 170 °C
SMILES: CCCN(CCN1CCN(C(=O)c2n[nH]c3ccccc23)CC1)C1CCc2c(O)cccc2C1 (stereo not shown) (as salt: HCl) [Compound 40g, (4-{2-[(5-Hydroxy-1,2,3,4-tetrahydro-naphthalen-2-yl)-propyl-amino]-ethyl}-piperazin-1-yl)-(1H-indazol-3-yl)-methanone]

melting point: 131 to 134 °C
SMILES: CCCN(CCN1CCN(C(=O)c2cc3ccccc3s2)CC1)C1CCc2c(O)cccc2C1 (stereo not shown) (as salt: HCl) [Compound 40i, Benzo[b]thiophen-2-yl-(4-{2-[(5-hydroxy-1,2,3,4-tetrahydro-naphthalen-2-yl)-propyl-amino]-ethyl}-piperazin-1-yl)-methanone]

melting point: 142 to 146 °C
SMILES: CCCN(CCN1CCN(C(=O)c2cnc3ccccc3c2)CC1)C1CCc2c(O)cccc2C1 (stereo not shown) (as salt: HCl) [Compound 40j, (4-{2-[(5-Hydroxy-1,2,3,4-tetrahydro-naphthalen-2-yl)-propyl-amino]-ethyl}-piperazin-1-yl)-quinolin-3-yl-methanone]

melting point: 198 to 203 °C
SMILES: CCCN(CCN1CCN(Cc2ccc3[nH]ccc3c2)CC1)C1CCc2ccc(O)cc2C1 (stereo not shown) (as salt: oxalate) [Compound 40b, 7-({2-[4-(1H-Indol-5-ylmethyl)-piperazin-1-yl]-ethyl}-propyl-amino)-5,6,7,8-tetrahydro-naphthalen-2-ol]

melting point: 135 to 137 °C
SMILES: CCCN(CCN1CCN(Cc2cc3ccccc3[nH]2)CC1)C1CCc2ccc(O)cc2C1 (stereo not shown) (as salt: oxalate) [Compound 40d, 7-({2-[4-(1H-Indol-2-ylmethyl)-piperazin-1-yl]-ethyl}-propyl-amino)-5,6,7,8-tetrahydro-naphthalen-2-ol]

Ki [1]: 0.55 nM
SMILES: CCCN(CCN1CCN(C(=O)c2cc3ccccc3[nH]2)CC1)C1CCc2c(O)cccc2C1 (racemic) [Compound 40e, (4-{2-[(5-Hydroxy-1,2,3,4-tetrahydro-naphthalen-2-yl)-propyl-amino]-ethyl}-piperazin-1-yl)-(1H-indol-2-yl)-methanone]

Ki [2]: 144 nM
Ki [1]: 3.87 nM
SMILES: CCCN(CCN1CCN(Cc2ccc3[nH]ccc3c2)CC1)C1CCc2ccc(O)cc2C1 (stereo not shown) [Compound 40b, 7-({2-[4-(1H-Indol-5-ylmethyl)-piperazin-1-yl]-ethyl}-propyl-amino)-5,6,7,8-tetrahydro-naphthalen-2-ol]

Ki [2]: 116 nM
D2/D3 (Ki ratio, binding selectivity) ([1]; Ki D2 / Ki D3): 31
Ki [1]: 3.72 nM
SMILES: CCCN(CCN1CCN(C(=O)c2cc3ccccc3[nH]2)CC1)C1CCc2ccc(O)cc2C1 (stereo not shown) [Compound 40c, (4-{2-[(7-Hydroxy-1,2,3,4-tetrahydro-naphthalen-2-yl)-propyl-amino]-ethyl}-piperazin-1-yl)-(1H-indol-2-yl)-methanone]

Ki [2]: 58.9 nM
Ki [1]: 3.62 nM
SMILES: CCCN(CCN1CCN(C(=O)c2c[nH]c3ccccc23)CC1)C1CCc2c(O)cccc2C1 (stereo not shown) [Compound 40f, (4-{2-[(5-Hydroxy-1,2,3,4-tetrahydro-naphthalen-2-yl)-propyl-amino]-ethyl}-piperazin-1-yl)-(1H-indol-3-yl)-methanone]

Ki [2]: 28 nM
Ki [1]: 2.83 nM
SMILES: CCCN(CCN1CCN(C(=O)c2n[nH]c3ccccc23)CC1)C1CCc2c(O)cccc2C1 (stereo not shown) [Compound 40g, (4-{2-[(5-Hydroxy-1,2,3,4-tetrahydro-naphthalen-2-yl)-propyl-amino]-ethyl}-piperazin-1-yl)-(1H-indazol-3-yl)-methanone]

Ki [2]: 158 nM
SMILES: CCCN(CCN1CCN(C(=O)c2cnc3ccccc3c2)CC1)C1CCc2c(O)cccc2C1 (stereo not shown) [Compound 40j, (4-{2-[(5-Hydroxy-1,2,3,4-tetrahydro-naphthalen-2-yl)-propyl-amino]-ethyl}-piperazin-1-yl)-quinolin-3-yl-methanone]
